Measurements: patent US7453011B2, “Cycloalkyl substituted polyamines for cancer therapy and methods of synthesis therefor” (Progen Pharmaceuticals, Inc., priority 2001, dated 2008)
Structures can show the parent of a compound that is named as a salt. Where two headings read alike, the source gives them in different places. Values belong to the compound of their own block, whether it stands above or below them.

Tests used:
[1] = test system: PC-3 human prostate cancer cell line; test: MTT assay, PC-3 cells; assay type: cell-based
Protocol: (§1) The polyamine analogs inhibited prostate cancer cell growth in vitro., as indicated in Table 1 and FIG. 1, FIG. 2, FIG. 3, FIG. 4, and FIG. 5. Tissue cultures and the MTT assay were performed as follows. Additional protocols for in vitro assays are disclosed in International Patent Applications WO 00/66175, WO 00/66528, WO 00/66587, WO 98/17624, Valasinas et al., J. Med. Chem. 44:390-403 (2001), and U.S. Provisional Patent Application Ser. No. 60/329,982 filed Oct. 16, 2001.
(§2) Tissue Culture. Cells were seeded into 75 cm^2 culture flasks with 15 ml of Eagle's minimal essential medium supplemented with 10% fetal calf serum and nonessential amino acids. The flasks were incubated in a humidified 95% air/5% CO2 atmosphere. The cells were grown for at least 24 h to ensure that they are in the log phase of growth and then they were treated with the polyamine analogs. Cells were harvested by treatment for 5 min with STV (saline A, 0.05% trypsin, 0.02% EDTA) at 37° C. The flasks were rapped on the lab bench, pipetted several times and aliquots of cell suspension were withdrawn and counted using a Coulter particle counter that has been standardized for counting each cell line using a hemacytometer.
(§3) MTT Assay: Trypsinized cell suspensions were diluted to seed 80 μl suspensions containing 500 cells in each well of a 96 well Corning microtiter plate and incubated overnight at 37° C. in a humidified incubator in 5% CO2. 20 μl of appropriately diluted stock solution of each drug (i.e., polyamine analog) were added to the middle 8 columns of cell suspension in the microtiter plates. Each drug concentration was run in quadruplicate. Outer columns of the plates were used for buffer controls. Cells were incubated with the drug for 6 days at 37° C. in 5% CO2/H2O atmosphere. 25 μl of 5 mg/ml solution of 3-(4,5-dimethylthiazol-2-yl)-2,5-diphenyl tetrazolium bromide (MTT) were added to each well and incubated for 4 hours at 37° C. in 5% CO2/H2O incubator. Cells were lysed by incubating overnight with 100 μl lysis buffer (500 ml of the lysis buffer contains: 100 g lauryl sulfate (SDS), 250 ml of N,N-dimethylformamide, and 2 ml of glacial acetic acid, made up to volume with water; pH 4.8).
(§4) The color was monitored at room temperature at 570 nm in a E-max Precision Microplate Reader (Molecular Devices Corporation, Sunnyvale, Calif.) and data was analyzed using cell survival software supplied by Molecular Devices Corporation.
(§5) The effects of SL-11218 and SL-11231 on the growth of human prostate tumor cell lines PC-3, DU-145, DuPro and LnCap and on human breast cancer cell lines MCF-7 and MDA-MB-231 in culture were determined by an MTT assay. The growth inhibitory effects were expressed as ID50 value which is defined as the drug concentration required to inhibit 50% cell growth after 5 days of treatment. The results are shown in Table 2; the numbers are the average of the values determined in at least three separate experiments. Both compounds are effective in inhibiting human prostate tumor cell growth in culture.

[2] = test system: DuPro human prostate cancer cell line; test: MTT assay, DuPro cells; assay type: cell-based
Protocol: as §1, §2, §3, §4, §5

[3] = test system: DU145 human prostate cancer cell line; test: MTT assay, DU145 cells; assay type: cell-based; conditions: read-out: ID50 DU145
Protocol: as §1, §2, §3, §4, §5

[4] = test system: large (~2000 mm^3) DU-145 tumor xenograft; test: Large DU-145 tumor xenograft in nude mice; assay type: in vivo
Protocol: (§6) In addition, SL-11218 at a dose of 75 mg/kg i.p. for q1w×4 stabilized large (˜2000 mm^3) DU-145 tumor xenograft for 2 cycles with a 4 week gap between each cycle (FIG. 11a). Male athymic nude mice were given s.c. injections of 1×10^6 DU145 cells on Day 0. Beginning on Day 10, mice were given acidified water vehicle orally at 10 ml/kg dosing volume 1× weekly for 8 weeks. On D66 mice began weekly treatment of saline versus SL-11218 i.p. After cycle 1 there was a 27% reduction in tumor volume compared to vehicle treated controls. After cycle 2 there was a significant reduction of 64% with 15% drop in body weight which recovered between cycles. (Cycle 1, administration on days 66, 73, 80, 87; cycle 2, administration on days 115, 122, 129, 136.) BW p values were compared to untreated controls. At d87, p=0.005 for SL-11218. (For saline vehicle, n=9; at d 87 n=8; at d 101, n=4; for SL-11218 n=9; d 80 n=7; d 101 n=5). FIG. 11b indicates the effect of SL-11218 on animal bodyweight (saline vehicle, n=9, at d87, n=8; at d101 n=4; for SL-11218, n=9; at d80, n=7, at d101 n=5; p=0.015 at d98 and 0.001 at d132).

[5] = test system: MCF-7 human breast cancer cell line; test: MTT assay, MCF-7 cells; assay type: cell-based; conditions: for IC50: Table 2, 5 days of treatment, average of at least three experiments, read-out: ID50 MCF-7
Protocol: as §3, §4, §5

[6] = test system: DU-145 human prostate tumor xenograft; test: DU-145 human prostate tumor xenograft in nude mice; assay type: in vivo
Protocol: (§7) Male athymic nude mice were given s.c. injections of 1×10^6 DU-145 cells on Day 0. Beginning on Day 7, mice were treated i.p q1w×4 for 3 cycles with either saline, 50 mg/kg SL-11218 or 75 mg/kg SL-11218 (pH 7.4) i.p. at 10 ml/kg dosing volume. (Cage issues in the control cage were due to a water bottle leaking and lack of food for 24 hours.) The treatment was carried out once weekly for four weeks (q1w×4) in 3 cycles with a 4 week gap between each cycle. (i.e., cycle 1, administration on days 7, 14, 21, 28; cycle 2, administration on days 49, 56, 63, 70; cycle 3, administration on days 98, 105, 112, 119). All p values were compared to vehicle treated mice.
(§8) The effect of SL-11231 at 12.5 mg/kg for 5 consecutive days against DU-145 human prostate tumor xenograft in nude mice is shown in FIG. 8a. […] (Note that the value reported in Table 1 for SL-11231 versus DU-145 cells is for a single experiment, while the value reported in Table 2 is an average of multiple experiments.)

[7] = test system: MDA-MB-231 human breast cancer cell line; test: MTT assay, MDA-MB-231 cells; assay type: cell-based; conditions: Table 2, 5 days of treatment, average of at least three experiments, read-out: ID50 MDA-MB-231
Protocol: as §3, with “Cells were lysed by incubating overnight with 100 μl lysis buffer (500 ml of the lysis buffer contains: 100 g lauryl sulfate (SDS), 250 ml of N,N-dimethylformamide, and 2 ml of glacial acetic acid, made up to volume with water; pH 4.8).” left out
as §4
(§9) The effects of SL-11218 and SL-11231 on the growth of human prostate tumor cell lines PC-3, DU-145, DuPro and LnCap and on human breast cancer cell lines MCF-7 and MDA-MB-231 in culture were determined by an MTT assay. […] The results are shown in Table 2; the numbers are the average of the values determined in at least three separate experiments. […]

[8] = test system: BxPC-3 human pancreatic tumor xenograft; test: Human pancreatic tumor xenograft in nude mice; assay type: in vivo; conditions: 10 days break
[9] = Body weight of DU-145 tumor-bearing nude mice under treatment; assay type: in vivo
Protocol: as §7, §8, §6

[10] = test system: DuPro human prostate tumor cell line; test: Colony forming efficiency (CFE) assay, DuPro; assay type: cell-based; conditions: FIG. 6
[11] = test system: LnCap human prostate cancer cell line; test: MTT assay, LnCap cells; assay type: cell-based; conditions: read-out: ID50 LnCap
Protocol: as §1, §2
MTT Assay: Trypsinized cell suspensions were diluted to seed 80 μl suspensions containing 500 cells in each well of a 96 well Corning microtiter plate and incubated overnight at 37° C. in a humidified incubator in 5% CO2. […]
as §4, §9

[12] = test system: Tsu-pr1 human prostate cancer cell line; test: MTT assay, Tsu-pr1 cells; assay type: cell-based; conditions: Table 1, read-out: ID50 Tsu-pr1
Protocol: as §1
as §2, with “Cells were harvested by treatment for 5 min with STV (saline A, 0.05% trypsin, 0.02% EDTA) at 37° C.” left out, “hemacytometer. […]” for “hemacytometer.”
as §4

[13] = test system: Tsu-pr1-ADR human prostate cancer cell line; test: MTT assay, Tsu-pr1-ADR cells; assay type: cell-based; conditions: Table 1, read-out: ID50 Tsu-pr1-ADR
Protocol: as §1
as §2, with “Cells were harvested by treatment for 5 min with STV (saline A, 0.05% trypsin, 0.02% EDTA) at 37° C.” left out, “hemacytometer. […]” for “hemacytometer.”
as §4

[14] = multiple injection (ip) schedules; cited from earlier work
[15] = test system: L1210 leukemia or Lewis lung carcinoma; conditions: L1210 leukemia or Lewis lung carcinoma grafted in athymic nude mice; cited from earlier work
[16] = Table 1, PC-3, read-out: ID50 PC-3
[17] = Table 1, human prostate cancer cell line DuPro, read-out: ID50 DuPro
[18] = Table 1, DU145, SL-11231 value from a single experiment
[19] = Table 2, 5 days of treatment, average of at least three experiments, read-out: ID50 PC3
[20] = Table 2, 5 days of treatment, average of at least three experiments, read-out: ID50 DUPRO
[21] = Table 2, 5 days of treatment, average of at least three experiments

SMILES: CCNCC1CC1CNCCCCNCC1CC1CNCC.Cl.Cl.Cl.Cl (mixture of isomers) [SL-11218]
- effect on large tumor xenograft ([4]; 75 mg/kg i.p. q1w×4, 2 cycles): stabilized
- reduction in tumor volume compared to vehicle treated controls ([4]; 75 mg/kg i.p. q1w×4, after cycle 1): 27%
- reduction in tumor volume compared to vehicle treated controls ([4]; 75 mg/kg i.p. q1w×4, after cycle 2): 64%
- IC50 [1, 16]: > 31200 nM
- IC50 [1, 19]: > 31200 nM
- IC50 [5]: 4250 nM
- activity against MCF-7 breast cancer cells ([5]; in words): some activity
- effect on tumor growth ([6]; 50 mg/kg i.p. q1w×4, 3 cycles): temporarily arrested tumor growth
- effect on tumor growth ([6]; 75 mg/kg i.p. q1w×4, 3 cycles): arrested tumor growth throughout the treatment period of 120 days
- IC50 [7]: > 31200 nM
- effect on human pancreatic tumor growth ([8]; 50 mg/kg i.p. q1d×5, 2 cycles): effectively inhibit human pancreatic tumor growth
- IC50 [2, 17]: 260 nM
- IC50 [2, 20]: 260 nM
- bodyweight loss ([9]; 75 mg/kg i.p. q1w×4, 3 cycles, 120 days, DU-145 xenograft): without appreciable bodyweight loss
- drop in body weight ([9]; 75 mg/kg i.p. q1w×4, after cycle 2, large DU-145 xenograft, recovered between cycles): 15%
- IC50 [3, 18]: 63 nM
- IC50 [3, 21]: 60 nM
- cytotoxicity by CFE assay [10]: marked cytotoxicity

SMILES: CCNCCCCNCC1CC1CNCCCCNCC1CC1CNCCCCNCC (mixture of isomers) [SL-11231]
- IC50 [1, 16]: > 31200 nM
- IC50 [1, 19]: > 31200 nM
- IC50 [5]: > 31200 nM
- effect on tumor growth ([6]; 12.5 mg/kg for 5 consecutive days): efficiently inhibits tumor growth
- IC50 [7]: > 31200 nM
- IC50 ([11]; Table 1, LnCap): 150 nM
- IC50 [11, 21]: 150 nM
- effect on human pancreatic tumor growth ([8]; 12.5 mg/kg i.p. q1d×5, 2 cycles): effectively inhibit human pancreatic tumor growth
- IC50 [2, 17]: 380 nM
- IC50 [2, 20]: 380 nM
- effect on animal bodyweight ([9]; 12.5 mg/kg for 5 consecutive days, DU-145 xenograft): without appreciable effects on animal bodyweight
- IC50 [3, 18]: 80 nM
- IC50 [3, 21]: 120 nM

SMILES: CCNCCCCNCC1CC1CNCCCCNCC (racemic) [SL-11093]
- IC50 [1, 16]: 4170 nM
- IC50 [12]: 70 nM
- IC50 ([11]; Table 1, LnCap): 210 nM
- IC50 [2, 17]: 200 nM
- IC50 [13]: > 31200 nM
- IC50 [3, 18]: 10 nM

SMILES: CC(C)(C)NCCCCNCC1CC1CNCCCCNC(C)(C)C (racemic) [SL-11247]
- IC50 [1, 16]: > 31200 nM
- IC50 [2, 17]: > 31200 nM
- IC50 [3, 18]: 11200 nM

SMILES: CCNCCCCNCCCCNCCCCNCC [BE-4-4-4, ^1N,^14N-bisethylhomospermine]
- maximum tolerated dose (MTD) [14]: ca. 6 mg/kg
- increase in lifespan as compared to control [15]: ca. 6 fold

SMILES: CCNCCCCNCC1CC1CNCCCCNCCCCNCC1CC1CNCCCCNCCCCNCC1CC1CNCCCCNCC (stereo not drawn) [SL-11232, 10,11-25,26-40,41-ter[(E)-1,2-cyclopropyl]-3,8,13,23,28,33,38,43,48-decaazapentacontane decahydrochloride]
- IC50 [1, 16]: 300 nM
- IC50 [2, 17]: 200 nM

SMILES: CCNCCCCNCC1CC1CNCCCCN (stereo not drawn) [SL-11242]
- IC50 ([1]; Homo sapiens, Table 1, PC-3, read-out: ID50 PC-3): > 31200 nM

Now from value to compound:

- IC50 [1, 16]: > 31200 nM
- IC50 [2, 17]: 630 nM
- IC50 [3, 18]: 60 nM
SMILES: CCNCC1CC1CNCC1CC1CNCC1CC1CNCC (mixture of isomers) [SL-11215]

- IC50 [1, 16]: 400 nM
- IC50 [2, 17]: 340 nM
- IC50 [3, 18]: 200 nM
SMILES: CCNCCCCNCCCCNCCCCNCCCCNCC1CC1CNCCCCNCCCCNCCCCNCCCCNCC (racemic) [SL-11241]

- IC50 [1, 16]: > 31200 nM
- IC50 [2, 17]: > 31200 nM
- IC50 [3, 18]: 610 nM
SMILES: NCCCCNCC1CC1CNCCCCN (racemic) [SL-11245]
